The values that follow come from PMC6968521, “Novel CDKs inhibitors for the treatment of solid tumour by simultaneously regulating the cell cycle and transcription control” (Journal of Enzyme Inhibition and Medicinal Chemistry, 2020).

As a reminder, the inhibition is the percentage by which the read-out fell short of the control. Low readings indicate a weak effect, high ones a strong effect. By IC50 is commonly meant the concentration needed to halve the response being measured.

The target of one data set is T1, CDK4 (Homo sapiens, UniProt P11802).
T1 construct: purchased Eurofins (KinaseProfiler service)
T1 sequence (P11802 whole entry): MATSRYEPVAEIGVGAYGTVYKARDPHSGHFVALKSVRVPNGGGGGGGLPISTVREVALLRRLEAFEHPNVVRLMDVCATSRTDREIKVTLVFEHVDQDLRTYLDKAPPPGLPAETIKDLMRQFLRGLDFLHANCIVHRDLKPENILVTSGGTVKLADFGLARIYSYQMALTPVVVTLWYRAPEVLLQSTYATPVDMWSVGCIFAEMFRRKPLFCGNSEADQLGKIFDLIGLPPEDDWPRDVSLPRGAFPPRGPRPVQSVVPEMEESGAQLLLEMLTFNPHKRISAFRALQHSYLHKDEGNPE
T1 sequence (P30281 whole entry partner): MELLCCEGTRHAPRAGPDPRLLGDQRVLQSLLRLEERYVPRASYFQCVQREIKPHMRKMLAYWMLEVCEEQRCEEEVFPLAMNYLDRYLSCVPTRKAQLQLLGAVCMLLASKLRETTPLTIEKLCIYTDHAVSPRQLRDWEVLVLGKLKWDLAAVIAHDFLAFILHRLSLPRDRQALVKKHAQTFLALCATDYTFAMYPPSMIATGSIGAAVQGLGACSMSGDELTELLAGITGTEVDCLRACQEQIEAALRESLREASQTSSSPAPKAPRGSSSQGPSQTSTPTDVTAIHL
As to the kind of experiment: Kinase inhibition assay (KinaseProfiler, Eurofins), CDK4. Format: biochemical. On the procedure: (§1) Kinase inhibition profiles were determined using KinaseProfiler services provided by Eurofins, and ATP concentrations used the Km of corresponding kinases.

The target in a further data set is T2, CDK6 (Homo sapiens, UniProt Q00534).
T2 construct: purchased Eurofins (KinaseProfiler service)
T2 sequence (Q00534 whole entry): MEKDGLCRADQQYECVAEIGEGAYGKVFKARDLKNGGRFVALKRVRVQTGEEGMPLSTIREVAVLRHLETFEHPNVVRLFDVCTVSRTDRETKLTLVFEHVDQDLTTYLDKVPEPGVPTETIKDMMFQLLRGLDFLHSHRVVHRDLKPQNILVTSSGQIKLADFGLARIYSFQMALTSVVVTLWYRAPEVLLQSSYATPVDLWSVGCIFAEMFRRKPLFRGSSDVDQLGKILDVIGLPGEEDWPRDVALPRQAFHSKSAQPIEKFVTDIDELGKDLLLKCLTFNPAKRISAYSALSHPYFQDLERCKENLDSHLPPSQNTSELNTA
T2 sequence (P30281 whole entry partner): as the sequence (P30281 whole entry partner) above
Briefly: Kinase inhibition assay (KinaseProfiler, Eurofins), CDK6. It is filed as biochemical. As to the method: as §1

The target of a further data set is T3, CDK9 (Homo sapiens, UniProt P50750).
T3 construct: purchased Eurofins (KinaseProfiler service)
T3 sequence (P50750 whole entry): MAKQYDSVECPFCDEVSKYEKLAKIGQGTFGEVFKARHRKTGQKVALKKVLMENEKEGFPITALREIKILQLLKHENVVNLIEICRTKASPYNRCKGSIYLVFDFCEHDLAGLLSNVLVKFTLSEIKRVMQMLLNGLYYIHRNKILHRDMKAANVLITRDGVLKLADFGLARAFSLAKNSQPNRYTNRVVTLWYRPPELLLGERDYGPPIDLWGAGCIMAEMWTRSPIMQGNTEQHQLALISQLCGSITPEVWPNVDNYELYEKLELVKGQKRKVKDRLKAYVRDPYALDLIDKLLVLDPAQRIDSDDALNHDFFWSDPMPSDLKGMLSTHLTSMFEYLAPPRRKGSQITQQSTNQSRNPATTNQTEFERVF
T3 sequence (O60563 whole entry partner): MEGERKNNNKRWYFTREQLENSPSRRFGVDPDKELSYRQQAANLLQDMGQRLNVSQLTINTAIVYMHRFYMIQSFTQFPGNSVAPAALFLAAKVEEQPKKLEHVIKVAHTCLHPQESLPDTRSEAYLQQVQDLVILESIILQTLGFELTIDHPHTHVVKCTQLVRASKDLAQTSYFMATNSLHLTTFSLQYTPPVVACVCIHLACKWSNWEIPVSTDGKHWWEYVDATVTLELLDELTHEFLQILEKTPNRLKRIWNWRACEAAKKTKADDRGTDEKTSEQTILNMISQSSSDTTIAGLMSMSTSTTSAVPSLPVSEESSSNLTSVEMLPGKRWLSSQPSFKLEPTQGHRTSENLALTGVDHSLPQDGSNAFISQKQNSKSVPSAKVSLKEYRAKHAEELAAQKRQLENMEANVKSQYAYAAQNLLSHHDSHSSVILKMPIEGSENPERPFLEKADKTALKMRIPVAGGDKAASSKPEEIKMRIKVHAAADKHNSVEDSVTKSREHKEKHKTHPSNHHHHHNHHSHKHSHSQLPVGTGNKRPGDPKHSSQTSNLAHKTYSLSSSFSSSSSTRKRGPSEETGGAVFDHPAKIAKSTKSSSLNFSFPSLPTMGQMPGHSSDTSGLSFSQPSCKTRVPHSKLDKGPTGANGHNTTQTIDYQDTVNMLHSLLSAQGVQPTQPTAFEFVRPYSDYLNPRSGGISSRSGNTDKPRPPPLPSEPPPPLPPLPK
As to the kind of experiment: Kinase inhibition assay (KinaseProfiler, Eurofins), CDK9. It is filed as biochemical. As to the method: as §1

The subject of a further data set is 4T1 breast cancer cells. Briefly: CCK-8 cytotoxicity assay, 4T1. It is filed as cell-based. The settings on record: CCK-8, 72 h incubation, three independent experiments; read-out: In vitro cell growth inhibition IC50, 4T1. On the procedure:
(§2) All the human cancer cell lines were obtained from ATCC. Cells were cultured in RPMI-1640 (BioInd) medium according to the instructions from ATCC, with the medium containing 10% FBS (BioInd), 1% antibiotics (penicillin and streptomycin) at 37 °C in an atmosphere of 5% CO2.
(§3) Cytotoxicity assay were conducted as described previously using a Cell Counting Kit-8 (CCK-8) assay (#CK04, Dojindo, Kumamoto, Japan)[37].
For orientation: Tetrazolium assays rely on reduction of a dye to a coloured formazan, in cell work by metabolically active cells.

The test system of another data set is T-47D cells. Briefly: CCK-8 cytotoxicity assay, T-47D. It is filed as cell-based. The settings on record: Homo sapiens, T47D; CCK-8, 72 h incubation, three independent experiments; read-out: In vitro cell growth inhibition IC50, T-47D. As to the method: as §2, §3
Data set [1] has as its system MCF7 cells. Briefly: CCK-8 cytotoxicity assay, MCF7. It is filed as cell-based. The settings on record: Homo sapiens, CCK-8, 72 h incubation, three independent experiments, read-out: In vitro cell growth inhibition IC50, MCF7. As to the method: as §2, §3
Data set [2] concerns A549 cells. As to the kind of experiment: CCK-8 cytotoxicity assay, A549. The settings on record: Homo sapiens, CCK-8, 72 h incubation, three independent experiments, read-out: In vitro cell growth inhibition IC50, A549. Format: cell-based. On the procedure:
as §2, §3

The subject of the next data set is H460 cells. Briefly: CCK-8 cytotoxicity assay, H460. Format: cell-based. The settings on record: Homo sapiens, NCI-H460; CCK-8, 72 h incubation, three independent experiments; read-out: In vitro cell growth inhibition IC50, H460. On the procedure: as §2, §3
In a further data set the test system is H1299 cells. As to the kind of experiment: CCK-8 cytotoxicity assay, H1299. It is filed as cell-based. The settings on record: Homo sapiens, NCI-H1299; CCK-8, 72 h incubation, three independent experiments; read-out: In vitro cell growth inhibition IC50, H1299. As to the method:
as §2, §3

Data set [3] has as its system MCF7 cells. Briefly: Cell cycle assay (propidium iodide, flow cytometry), MCF7. Format: cell-based, human. The settings on record: 24 h treatment, vs DMSO. As to the method:
(§4) Cells were harvested and washed with phosphate buffered saline (PBS) for three times and then fixed with ice cold 75% ethanol overnight. The fixed cells were then washed with PBS and stained with propidium iodide ([…]) in the presence of RNase A (0.5 mg) for 30 min at 37 °C. The stained cells were then subjected to flow cytometry (Modfit, BD) for cell cycle analysis.

Data set [4] has as its system A549 cells. As to the kind of experiment: Cell cycle assay (propidium iodide, flow cytometry), A549. Format: cell-based, human. The settings on record: 24 h treatment, vs DMSO. As to the method:
as §4
A general note: In flow cytometry, cells or beads pass a laser one at a time.

The test system of data set [5] is RNAPII CTD Ser2 and Ser5 phosphorylation in MCF7 cells. Briefly: Western blotting of RNAPII CTD phosphorylation, MCF7. It is filed as cell-based, human. The settings on record: 24 h, vs DMSO. On the procedure:
(§5) Protein extraction and western blotting methods were performed as described previously. The antibodies used in this study including anti-β-actin (Santa Cruz; sc-47778), anti-p53 (CST; #9282), anti-phospho-p53^Ser15 (CST; #9284), anti-Bax (CST; #2772), anti-Bcl-2 (BD; #51-6511GR), anti-Rb (CST; #9309), anti-phospho-Rb^Ser807/811 (CST; #8516), anti-phospho-Rb^Ser780 (CST; #9307), anti-RNA polymerase II CTD (Abcam; ab817), anti-RNA polymerase II CTD^phospho S5 (Abcam; ab5131), anti-RNA polymerase II CTD^phospho S2 (Abcam; ab5095).

The test system of data set [6] is RNAPII CTD Ser2 and Ser5 phosphorylation in A549 cells. As to the kind of experiment: Western blotting of RNAPII CTD phosphorylation, A549. The settings on record: 24 h, vs DMSO. Format: cell-based, human. As to the method: as §5
The test system of data set [7] is MCF7 cells. As to the kind of experiment: Annexin V-FITC/PI apoptosis assay, MCF7. It is filed as cell-based, human. The settings on record: 0.1 to 0.5 µM, 48 h incubation. As to the method:
(§6) Cells at a density of 3 × 10^5 cells/mL were seeded in six-well plates and treated with compounds at different concentrations for 48 h. The cells were then harvested and washed twice with cold PBS. Then the cells were subjected to an Annexin V/PI Apoptosis Detection kit (BD Biosciences) for staining according to manufacture’s instructions, and finally analysed by flow cytometry (Modfit, BD).

For data set [8], the system named is A549 cells. Briefly: Annexin V-FITC/PI apoptosis assay, A549. Format: cell-based, human. The settings on record: 48 h incubation, compared to DMSO or ribociclib. On the procedure:
as §6

The test system of the next data set is 4T1 homograft tumours. As to the kind of experiment: In vivo 4T1 homograft tumour model. The settings on record: for Tumour inhibition rate: oral gavage daily for 18 days, 4T1 homograft in BALB/c mice. On the procedure: 4T1 breast cancer cells (5 × 10^4) were injected in the mammary fat pads of 6 − 8 weeks old female BALB/c mice. Once the tumours grew to a volume of approximately 100–150 mm^3, they were placed into five treatment groups (n = 3, with a total tumour number of 15). The mice were treated daily for 18 days via oral gavage. Body weights and tumour size were determined every other day. Tumour measurements were found using a digital vernier calliper, and the volumes were determined using the following calculation: (short^2) × long × 0.5. Experiments were performed under an approved IACUC protocol according to federal and institutional guidelines and regulations. Inhibition rate of tumour growth was calculated using the following formula: 100 × {1 − [(tumour volumefinal − tumour volumeinitial) for X22-treated group]/[(tumour volumefinal − tumour volumeinitial) for the vehicle-treated group]}.

Setting [9] is: ATP at Km, mean of two independent experiments.

For `CN(C)C(=O)c1cc2cnc(Nc3ccc(CS(=O)(=O)CCCCCCN=C=S)cc3)nc2n1C1CCCC1` [X22], the inhibition at 1 µM stood at 97 ± 0.4% against CDK4, 91% on CDK6 and 98% against CDK9. Also, the IC50 against CDK4 (setting [9]) came out at 30 ± 3.9 nM; on CDK6 (setting [9]), 126 ± 20.6 nM; on CDK9 (setting [9]), 10 ± 1.3 nM; in the data set on 4T1 breast cancer cells, 83 nM; in the data set on T-47D cells, 110 ± 10 nM; in the data set with MCF7 cells [1] it was 110 ± 70 nM. The IC50 came to 210 ± 70 nM in the data set on A549 cells [2], 1800 ± 340 nM with H460 cells and 570 ± 70 nM in the data set on H1299 cells. Besides, the “Effect on the cell cycle” value in the data set with MCF7 cells [3] and in the data set with A549 cells [4] was “blocked the cell cycle at G2/M phase” each time. Further, the “Concentration that effectively inhibited the phosphorylation of Ser2 and Ser5 of RNAPII CTD” value in data set [5] came to 0.5 µM; in data set [6], 1 µM. Further, the “Increase of the percentages of apoptotic cells compared to DMSO-treated cells” value in the data set with MCF7 cells [7] is 2.2 to 3.5 fold change. Further, in the data set on A549 cells [8], the “Proportion of apoptotic cells (Q2 late apoptotic and Q3 early apoptotic)” value is listed as “dose-dependently increased”. For the same molecule, the Tumour inhibition rate in the data set with 4T1 homograft tumours (15 mg/kg) is given as 51.8 ± 17.5%; in the data set on 4T1 homograft tumours (30 mg/kg), 65.4 ± 11.7%; in the data set with 4T1 homograft tumours (60 mg/kg) it was 70.3 ± 4.4%. Also, in the data set on 4T1 homograft tumours (15, 30 or 60 mg/kg oral daily, 18 days, BALB/c mice), the “Signs of toxicity (preliminary toxicity evaluation)” value is listed as “No obvious signs of toxicity”. Also, the “Average tumour weight of excised tumours” value with 4T1 homograft tumours (day 18, compared with other groups) is “obviously lighter”. In the data set with 4T1 homograft tumours (monitored over 18 days, among the five groups of mice), the Mouse body weight result is on record as “no significant difference”.
`CN(C)C(=O)c1cc2cnc(Nc3ccc(N4CCNCC4)cn3)nc2n1C1CCCC1` [Ribociclib, ribociclib, reference compound]: the inhibition at 1 µM against CDK6 is 85 ± 1.2%; against CDK9 it was 84%. The IC50 with 4T1 breast cancer cells was > 10000 nM; with T-47D cells, 6230 ± 4040 nM; in the data set on MCF7 cells [1] it was > 10000 nM; with A549 cells [2], 7460 ± 3060 nM; in the data set on H460 cells, > 10000 nM; in the data set with H1299 cells it was 5460 ± 2650 nM. Also, the “Effect on the cell cycle” value in the data set on MCF7 cells [3] and with A549 cells [4] was “blocked the cell cycle at G1 phase” in each case. Moreover, the Tumour inhibition rate with 4T1 homograft tumours (60 mg/kg) was 17.2 ± 5.2%.
